Numbers after ± are expanded uncertainties.
Assay: cn = amount concentration of the nth substance listed, in mol/dm3
Details: 101 kPa, Liquid, Alternating current cell with electrodes

CCCCCCn1cc[n+](C)c1.[Br-] [3-hexyl-1-methyl-1H-imidazolium bromide] + O
Details	molar conductivity [S·m2/mol]
298.15 K, c1 = 0.0004233	0.0104 ± 0.001
298.15 K, c1 = 0.0008352	0.0103 ± 0.001
298.15 K, c1 = 0.001327	0.0102 ± 0.001
298.15 K, c1 = 0.001785	0.0101 ± 0.001
298.15 K, c1 = 0.002231	0.0101 ± 0.001
298.15 K, c1 = 0.003203	0.00996 ± 0.001
298.15 K, c1 = 0.004124	0.00983 ± 0.00098
298.15 K, c1 = 0.005143	0.00974 ± 0.00097
298.15 K, c1 = 0.006841	0.00955 ± 0.00096
298.15 K, c1 = 0.008495	0.00941 ± 0.00094
298.15 K, c1 = 0.01022	0.00923 ± 0.00092
298.15 K, c1 = 0.01211	0.00905 ± 0.0009
298.15 K, c1 = 0.01464	0.0088 ± 0.00088
308.15 K, c1 = 0.0004492	0.0108 ± 0.0011
308.15 K, c1 = 0.001027	0.0106 ± 0.0011
308.15 K, c1 = 0.001581	0.0105 ± 0.0011
308.15 K, c1 = 0.002065	0.0104 ± 0.001
308.15 K, c1 = 0.002724	0.0104 ± 0.001
308.15 K, c1 = 0.003914	0.0102 ± 0.001
308.15 K, c1 = 0.005116	0.00999 ± 0.001
308.15 K, c1 = 0.006411	0.00987 ± 0.00099
308.15 K, c1 = 0.008535	0.00965 ± 0.00097
308.15 K, c1 = 0.01052	0.00946 ± 0.00095
308.15 K, c1 = 0.0126	0.00927 ± 0.00093
308.15 K, c1 = 0.01458	0.00912 ± 0.00091
318.15 K, c1 = 0.0004492	0.011 ± 0.0011
318.15 K, c1 = 0.001027	0.0109 ± 0.0011
318.15 K, c1 = 0.001581	0.0108 ± 0.0011
318.15 K, c1 = 0.002065	0.0107 ± 0.0011
318.15 K, c1 = 0.002724	0.0106 ± 0.0011
318.15 K, c1 = 0.003914	0.0104 ± 0.001
318.15 K, c1 = 0.005116	0.0103 ± 0.001
318.15 K, c1 = 0.006411	0.0102 ± 0.001
318.15 K, c1 = 0.008535	0.00993 ± 0.00099
318.15 K, c1 = 0.01052	0.00971 ± 0.00097
318.15 K, c1 = 0.0126	0.00953 ± 0.00095
318.15 K, c1 = 0.01458	0.00935 ± 0.00093
328.15 K, c1 = 0.0005148	0.0114 ± 0.0011
328.15 K, c1 = 0.001041	0.0113 ± 0.0011
328.15 K, c1 = 0.001608	0.0111 ± 0.0011
328.15 K, c1 = 0.002215	0.011 ± 0.0011
328.15 K, c1 = 0.002695	0.0109 ± 0.0011
328.15 K, c1 = 0.003725	0.0107 ± 0.0011
328.15 K, c1 = 0.004772	0.0105 ± 0.0011
328.15 K, c1 = 0.005836	0.0103 ± 0.001
328.15 K, c1 = 0.007462	0.0102 ± 0.001
328.15 K, c1 = 0.00911	0.00996 ± 0.001
328.15 K, c1 = 0.0107	0.00985 ± 0.00098
328.15 K, c1 = 0.01243	0.00963 ± 0.00096
328.15 K, c1 = 0.0147	0.00945 ± 0.00094

CCCCCn1cc[n+](C)c1.[Br-] [1-pentyl-3-methylimidazolium bromide] + O
Details	molar conductivity [S·m2/mol]
298.15 K, c1 = 0.000384	0.0111 ± 0.0011
298.15 K, c1 = 0.0008844	0.0111 ± 0.0011
298.15 K, c1 = 0.001373	0.011 ± 0.0011
298.15 K, c1 = 0.001897	0.011 ± 0.0011
298.15 K, c1 = 0.002397	0.0109 ± 0.0011
298.15 K, c1 = 0.003002	0.0108 ± 0.0011
298.15 K, c1 = 0.004323	0.0107 ± 0.0011
298.15 K, c1 = 0.005743	0.0106 ± 0.0011
298.15 K, c1 = 0.00718	0.0105 ± 0.001
298.15 K, c1 = 0.008646	0.0104 ± 0.001
298.15 K, c1 = 0.01011	0.0102 ± 0.001
298.15 K, c1 = 0.01145	0.0102 ± 0.001
298.15 K, c1 = 0.01293	0.01 ± 0.001
308.15 K, c1 = 0.0006353	0.0115 ± 0.0011
308.15 K, c1 = 0.001306	0.0114 ± 0.0011
308.15 K, c1 = 0.002028	0.0113 ± 0.0011
308.15 K, c1 = 0.002681	0.0113 ± 0.0011
308.15 K, c1 = 0.003351	0.0112 ± 0.0011
308.15 K, c1 = 0.003975	0.0111 ± 0.0011
308.15 K, c1 = 0.004605	0.011 ± 0.0011
308.15 K, c1 = 0.00598	0.0109 ± 0.0011
308.15 K, c1 = 0.007554	0.0107 ± 0.0011
308.15 K, c1 = 0.008895	0.0106 ± 0.0011
308.15 K, c1 = 0.01033	0.0105 ± 0.001
308.15 K, c1 = 0.01176	0.0103 ± 0.001
308.15 K, c1 = 0.01422	0.0101 ± 0.001
318.15 K, c1 = 0.0004898	0.0136 ± 0.0014
318.15 K, c1 = 0.001056	0.0135 ± 0.0014
318.15 K, c1 = 0.002177	0.0134 ± 0.0013
318.15 K, c1 = 0.003249	0.0131 ± 0.0013
318.15 K, c1 = 0.004768	0.0128 ± 0.0013
318.15 K, c1 = 0.006798	0.0124 ± 0.0012
318.15 K, c1 = 0.009143	0.012 ± 0.0012
318.15 K, c1 = 0.01259	0.0115 ± 0.0011
318.15 K, c1 = 0.01687	0.0109 ± 0.0011
318.15 K, c1 = 0.02234	0.0103 ± 0.001
328.15 K, c1 = 0.0004268	0.0146 ± 0.0015
328.15 K, c1 = 0.0008311	0.0141 ± 0.0014
328.15 K, c1 = 0.001314	0.0139 ± 0.0014
328.15 K, c1 = 0.002252	0.0137 ± 0.0014
328.15 K, c1 = 0.003274	0.0135 ± 0.0014
328.15 K, c1 = 0.004773	0.0133 ± 0.0013
328.15 K, c1 = 0.006329	0.0131 ± 0.0013
328.15 K, c1 = 0.008289	0.0128 ± 0.0013
328.15 K, c1 = 0.01078	0.0125 ± 0.0013
328.15 K, c1 = 0.01389	0.0122 ± 0.0012
328.15 K, c1 = 0.01791	0.0118 ± 0.0012
328.15 K, c1 = 0.02233	0.0115 ± 0.0012
328.15 K, c1 = 0.02611	0.0111 ± 0.0011

CCCCn1cc[n+](C)c1.[I-] [1-butyl-3-methylimidazolium iodide] + O
Details	molar conductivity [S·m2/mol]
298.15 K, c1 = 0.0009058	0.0138 ± 0.0014
298.15 K, c1 = 0.001366	0.0137 ± 0.0014
298.15 K, c1 = 0.002017	0.0136 ± 0.0014
298.15 K, c1 = 0.002809	0.0135 ± 0.0014
298.15 K, c1 = 0.003715	0.0134 ± 0.0013
298.15 K, c1 = 0.00495	0.0133 ± 0.0013
298.15 K, c1 = 0.006082	0.0132 ± 0.0013
298.15 K, c1 = 0.007529	0.0131 ± 0.0013
298.15 K, c1 = 0.009093	0.0129 ± 0.0013
298.15 K, c1 = 0.01105	0.0127 ± 0.0013
298.15 K, c1 = 0.01306	0.0126 ± 0.0013
298.15 K, c1 = 0.01489	0.0125 ± 0.0012
298.15 K, c1 = 0.01706	0.0123 ± 0.0012
298.15 K, c1 = 0.01978	0.0122 ± 0.0012
298.15 K, c1 = 0.02281	0.012 ± 0.0012
308.15 K, c1 = 0.0004602	0.0139 ± 0.0014
308.15 K, c1 = 0.0008351	0.0138 ± 0.0014
308.15 K, c1 = 0.001278	0.0137 ± 0.0014
308.15 K, c1 = 0.001726	0.0135 ± 0.0014
308.15 K, c1 = 0.002088	0.0135 ± 0.0013
308.15 K, c1 = 0.00254	0.0133 ± 0.0013
308.15 K, c1 = 0.003341	0.0132 ± 0.0013
308.15 K, c1 = 0.004184	0.0131 ± 0.0013
308.15 K, c1 = 0.005066	0.0129 ± 0.0013
308.15 K, c1 = 0.006502	0.0127 ± 0.0013
308.15 K, c1 = 0.007827	0.0126 ± 0.0013
308.15 K, c1 = 0.009685	0.0124 ± 0.0012
308.15 K, c1 = 0.01153	0.0122 ± 0.0012
318.15 K, c1 = 0.0002077	0.0144 ± 0.0014
318.15 K, c1 = 0.0005721	0.0143 ± 0.0014
318.15 K, c1 = 0.000962	0.0142 ± 0.0014
318.15 K, c1 = 0.001339	0.0141 ± 0.0014
318.15 K, c1 = 0.002111	0.0139 ± 0.0014
318.15 K, c1 = 0.002755	0.0138 ± 0.0014
318.15 K, c1 = 0.003581	0.0136 ± 0.0014
318.15 K, c1 = 0.004395	0.0134 ± 0.0013
318.15 K, c1 = 0.005399	0.0132 ± 0.0013
318.15 K, c1 = 0.006692	0.013 ± 0.0013
318.15 K, c1 = 0.007942	0.0128 ± 0.0013
318.15 K, c1 = 0.009561	0.0126 ± 0.0013
318.15 K, c1 = 0.01162	0.0124 ± 0.0012
328.15 K, c1 = 0.0004059	0.0146 ± 0.0015
328.15 K, c1 = 0.00074	0.0145 ± 0.0014
328.15 K, c1 = 0.001116	0.0143 ± 0.0014
328.15 K, c1 = 0.001865	0.0141 ± 0.0014
328.15 K, c1 = 0.002626	0.0139 ± 0.0014
328.15 K, c1 = 0.003374	0.0138 ± 0.0014
328.15 K, c1 = 0.004072	0.0137 ± 0.0014
328.15 K, c1 = 0.005214	0.0134 ± 0.0013
328.15 K, c1 = 0.006444	0.0132 ± 0.0013
328.15 K, c1 = 0.007599	0.013 ± 0.0013
328.15 K, c1 = 0.009252	0.0128 ± 0.0013
328.15 K, c1 = 0.01045	0.0126 ± 0.0013
328.15 K, c1 = 0.01188	0.0125 ± 0.0012
